Experiments:
Assay type in all cases: in vivo
Solanum nigrum (SOLNI) [1] = experiment: Post-emergence herbicidal glasshouse test on Solanum nigrum; settings: post-emergence; 1000 g/h; evaluated after 13 days
Outline: (§1)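 Application rate 1000 g/h, formulated in acetone/water (50:50) with 0.5% Tween 20 and sprayed onto pots sown 1 day (pre-emergence) or 8 days (post-emergence) earlier. Evaluation at 13 days rated damage from 1 (0-19%) to 5 (80-100%).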

Setaria faberi (SETFA) [2] = experiment: Post-emergence herbicidal glasshouse test on Setaria faberi; settings: post-emergence; 1000 g/h; evaluated after 13 days
Outline: as §1

[3] = system: Ipomoea hederacea (IPOHE); experiment: Post-emergence herbicidal glasshouse test on Ipomoea hederacea; settings: post-emergence; 1000 g/h; evaluated after 13 days
Outline: as §1

[4] = system: Echinochloa crus-galli (ECHCG); experiment: Post-emergence herbicidal glasshouse test on Echinochloa crus-galli; settings: post-emergence; 1000 g/h; evaluated after 13 days
Outline: as §1

[5] = system: Alopecurus myosuroides (ALOMY); experiment: Pre-emergence herbicidal glasshouse test on Alopecurus myosuroides; settings: pre-emergence; 1000 g/h; evaluated after 13 days
Outline: as §1

[6] = system: Alopecurus myosuroides (ALOMY); experiment: Post-emergence herbicidal glasshouse test on Alopecurus myosuroides; settings: post-emergence; 1000 g/h; evaluated after 13 days
Outline: as §1

[7] = system: Echinochloa crus-galli (ECHCG); experiment: Pre-emergence herbicidal glasshouse test on Echinochloa crus-galli; settings: pre-emergence; 1000 g/h; evaluated after 13 days
Outline: as §1

Setaria faberi (SETFA) [8] = experiment: Pre-emergence herbicidal glasshouse test on Setaria faberi; settings: pre-emergence; 1000 g/h; evaluated after 13 days
Outline: as §1

[9] = system: Amaranthus retoflexus (AMARE); experiment: Post-emergence herbicidal glasshouse test on Amaranthus retoflexus; settings: post-emergence; 1000 g/h; evaluated after 13 days
Outline: as §1

[10] = system: Ipomoea hederacea (IPOHE); experiment: Pre-emergence herbicidal glasshouse test on Ipomoea hederacea; settings: pre-emergence; 1000 g/h; evaluated after 13 days
Outline: as §1

Solanum nigrum (SOLNI) [11] = experiment: Pre-emergence herbicidal glasshouse test on Solanum nigrum; settings: pre-emergence; 1000 g/h; evaluated after 13 days
Outline: as §1

[12] = system: Amaranthus retoflexus (AMARE); experiment: Pre-emergence herbicidal glasshouse test on Amaranthus retoflexus; settings: pre-emergence; 1000 g/h; evaluated after 13 days
Outline: as §1

## Cn1ncc(-c2ccc(S(=O)(=O)Cc3ccccc3)cc2S(C)(=O)=O)c(O)c1=O [Compound 2.036]
Solanum nigrum (SOLNI) [1]
  POST Application SOLNI herbicidal damage (five point scale): 5 (5=80-100% damage)
Setaria faberi (SETFA) [2]
  POST Application SETFA herbicidal damage (five point scale): 5 (5=80-100% damage)
[3]
  POST Application IPOHE herbicidal damage (five point scale): 5 (5=80-100% damage)
[4]
  POST Application ECHCG herbicidal damage (five point scale): 5 (5=80-100% damage)
[5]
  PRE Application ALOMY herbicidal damage (five point scale): 5 (5=80-100% damage)
[6]
  POST Application ALOMY herbicidal damage (five point scale): 5 (5=80-100% damage)
[7]
  PRE Application ECHCG herbicidal damage (five point scale): 5 (5=80-100% damage)
Setaria faberi (SETFA) [8]
  PRE Application SETFA herbicidal damage (five point scale): 5 (5=80-100% damage)
[9]
  POST Application AMARE herbicidal damage (five point scale): 5 (5=80-100% damage)
[10]
  PRE Application IPOHE herbicidal damage (five point scale): 5 (5=80-100% damage)
Solanum nigrum (SOLNI) [11]
  PRE Application SOLNI herbicidal damage (five point scale): 5 (5=80-100% damage)
[12]
  PRE Application AMARE herbicidal damage (five point scale): 5 (5=80-100% damage)

## Cc1c(-c2cnn(CC3CC3)c(=O)c2O)ccc(S(C)(=O)=O)c1C1=NOCC1 [Compound 1.120]
Solanum nigrum (SOLNI) [1]
  POST Application SOLNI herbicidal damage (five point scale): 5 (5=80-100% damage)
Setaria faberi (SETFA) [2]
  POST Application SETFA herbicidal damage (five point scale): 5 (5=80-100% damage)
[3]
  POST Application IPOHE herbicidal damage (five point scale): 5 (5=80-100% damage)
[4]
  POST Application ECHCG herbicidal damage (five point scale): 5 (5=80-100% damage)
[5]
  PRE Application ALOMY herbicidal damage (five point scale): 3 (3=40-59% damage)
[6]
  POST Application ALOMY herbicidal damage (five point scale): 5 (5=80-100% damage)
[7]
  PRE Application ECHCG herbicidal damage (five point scale): 5 (5=80-100% damage)
Setaria faberi (SETFA) [8]
  PRE Application SETFA herbicidal damage (five point scale): 4 (4=60-79% damage)
[9]
  POST Application AMARE herbicidal damage (five point scale): 5 (5=80-100% damage)
[10]
  PRE Application IPOHE herbicidal damage (five point scale): 4 (4=60-79% damage)
Solanum nigrum (SOLNI) [11]
  PRE Application SOLNI herbicidal damage (five point scale): 4 (4=60-79% damage)
[12]
  PRE Application AMARE herbicidal damage (five point scale): 5 (5=80-100% damage)

## CS(=O)(=O)c1cc(C(F)(F)F)ccc1-c1cnn(C2CC2)c(=O)c1O [Compound 2.015]
Solanum nigrum (SOLNI) [1]
  POST Application SOLNI herbicidal damage (five point scale): 5 (5=80-100% damage)
Setaria faberi (SETFA) [2]
  POST Application SETFA herbicidal damage (five point scale): 5 (5=80-100% damage)
[3]
  POST Application IPOHE herbicidal damage (five point scale): 5 (5=80-100% damage)
[4]
  POST Application ECHCG herbicidal damage (five point scale): 5 (5=80-100% damage)
[5]
  PRE Application ALOMY herbicidal damage (five point scale): 5 (5=80-100% damage)
[6]
  POST Application ALOMY herbicidal damage (five point scale): 5 (5=80-100% damage)
[7]
  PRE Application ECHCG herbicidal damage (five point scale): 5 (5=80-100% damage)
Setaria faberi (SETFA) [8]
  PRE Application SETFA herbicidal damage (five point scale): 5 (5=80-100% damage)
[9]
  POST Application AMARE herbicidal damage (five point scale): 5 (5=80-100% damage)
[10]
  PRE Application IPOHE herbicidal damage (five point scale): 5 (5=80-100% damage)
Solanum nigrum (SOLNI) [11]
  PRE Application SOLNI herbicidal damage (five point scale): 5 (5=80-100% damage)
[12]
  PRE Application AMARE herbicidal damage (five point scale): 5 (5=80-100% damage)

## Cc1c(-c2cnn(C3CC3)c(=O)c2O)ccc(S(C)(=O)=O)c1C1=NOCC1 [Compound 1.008, 2-cyclopropyl-5-[3-(4,5-dihydroisoxazol-3-yl)-2-methyl-4-methylsulfonyl-phenyl]-4-hydroxy-pyridazin-3-one]
Solanum nigrum (SOLNI) [1]
  POST Application SOLNI herbicidal damage (five point scale): 5 (5=80-100% damage)
Setaria faberi (SETFA) [2]
  POST Application SETFA herbicidal damage (five point scale): 5 (5=80-100% damage)
[3]
  POST Application IPOHE herbicidal damage (five point scale): 5 (5=80-100% damage)
[4]
  POST Application ECHCG herbicidal damage (five point scale): 5 (5=80-100% damage)
[5]
  PRE Application ALOMY herbicidal damage (five point scale): 4 (4=60-79% damage)
[6]
  POST Application ALOMY herbicidal damage (five point scale): 5 (5=80-100% damage)
[7]
  PRE Application ECHCG herbicidal damage (five point scale): 5 (5=80-100% damage)
Setaria faberi (SETFA) [8]
  PRE Application SETFA herbicidal damage (five point scale): 4 (4=60-79% damage)
[9]
  POST Application AMARE herbicidal damage (five point scale): 5 (5=80-100% damage)
[10]
  PRE Application IPOHE herbicidal damage (five point scale): 3 (3=40-59% damage)
Solanum nigrum (SOLNI) [11]
  PRE Application SOLNI herbicidal damage (five point scale): 5 (5=80-100% damage)
[12]
  PRE Application AMARE herbicidal damage (five point scale): 4 (4=60-79% damage)

## COCCOc1c(S(C)(=O)=O)ccc(-c2cnn(C)c(=O)c2O)c1Cl [Compound 1.034]
Solanum nigrum (SOLNI) [1]
  POST Application SOLNI herbicidal damage (five point scale): 5 (5=80-100% damage)
Setaria faberi (SETFA) [2]
  POST Application SETFA herbicidal damage (five point scale): 5 (5=80-100% damage)
[3]
  POST Application IPOHE herbicidal damage (five point scale): 5 (5=80-100% damage)
[4]
  POST Application ECHCG herbicidal damage (five point scale): 5 (5=80-100% damage)
[5]
  PRE Application ALOMY herbicidal damage (five point scale): 2 (2=20-39% damage)
[6]
  POST Application ALOMY herbicidal damage (five point scale): 4 (4=60-79% damage)
[7]
  PRE Application ECHCG herbicidal damage (five point scale): 5 (5=80-100% damage)
Setaria faberi (SETFA) [8]
  PRE Application SETFA herbicidal damage (five point scale): 5 (5=80-100% damage)
[9]
  POST Application AMARE herbicidal damage (five point scale): 5 (5=80-100% damage)
[10]
  PRE Application IPOHE herbicidal damage (five point scale): 3 (3=40-59% damage)
Solanum nigrum (SOLNI) [11]
  PRE Application SOLNI herbicidal damage (five point scale): 5 (5=80-100% damage)
[12]
  PRE Application AMARE herbicidal damage (five point scale): 5 (5=80-100% damage)

## Cn1ncc(-c2ccc(Br)cc2S(C)(=O)=O)c(O)c1=O [Compound 1.081]
Solanum nigrum (SOLNI) [1]
  POST Application SOLNI herbicidal damage (five point scale): 5 (5=80-100% damage)
Setaria faberi (SETFA) [2]
  POST Application SETFA herbicidal damage (five point scale): 5 (5=80-100% damage)
[3]
  POST Application IPOHE herbicidal damage (five point scale): 5 (5=80-100% damage)
[4]
  POST Application ECHCG herbicidal damage (five point scale): 5 (5=80-100% damage)
[5]
  PRE Application ALOMY herbicidal damage (five point scale): 5 (5=80-100% damage)
[6]
  POST Application ALOMY herbicidal damage (five point scale): 5 (5=80-100% damage)
[7]
  PRE Application ECHCG herbicidal damage (five point scale): 5 (5=80-100% damage)
Setaria faberi (SETFA) [8]
  PRE Application SETFA herbicidal damage (five point scale): 5 (5=80-100% damage)
[9]
  POST Application AMARE herbicidal damage (five point scale): 5 (5=80-100% damage)
[10]
  PRE Application IPOHE herbicidal damage (five point scale): 2 (2=20-39% damage)
Solanum nigrum (SOLNI) [11]
  PRE Application SOLNI herbicidal damage (five point scale): 5 (5=80-100% damage)
[12]
  PRE Application AMARE herbicidal damage (five point scale): 5 (5=80-100% damage)

## Cn1ncc(-c2cc3cc(F)cnc3n(-c3ccsc3)c2=O)c(O)c1=O [Compound 1.074]
Solanum nigrum (SOLNI) [1]
  POST Application SOLNI herbicidal damage (five point scale): 5 (5=80-100% damage)
Setaria faberi (SETFA) [2]
  POST Application SETFA herbicidal damage (five point scale): 5 (5=80-100% damage)
[3]
  POST Application IPOHE herbicidal damage (five point scale): 5 (5=80-100% damage)
[4]
  POST Application ECHCG herbicidal damage (five point scale): 5 (5=80-100% damage)
[5]
  PRE Application ALOMY herbicidal damage (five point scale): 2 (2=20-39% damage)
[6]
  POST Application ALOMY herbicidal damage (five point scale): 2 (2=20-39% damage)
[7]
  PRE Application ECHCG herbicidal damage (five point scale): 4 (4=60-79% damage)
Setaria faberi (SETFA) [8]
  PRE Application SETFA herbicidal damage (five point scale): 1 (1=0-19% damage)
[9]
  POST Application AMARE herbicidal damage (five point scale): 5 (5=80-100% damage)
[10]
  PRE Application IPOHE herbicidal damage (five point scale): 1 (1=0-19% damage)
Solanum nigrum (SOLNI) [11]
  PRE Application SOLNI herbicidal damage (five point scale): 1 (1=0-19% damage)
[12]
  PRE Application AMARE herbicidal damage (five point scale): 5 (5=80-100% damage)

## Cc1ccccc1-c1c(C(F)(F)F)ccn(-c2cnn(C)c(=O)c2O)c1=O [Compound 1.053]
Solanum nigrum (SOLNI) [1]
  POST Application SOLNI herbicidal damage (five point scale): 5 (5=80-100% damage)
Setaria faberi (SETFA) [2]
  POST Application SETFA herbicidal damage (five point scale): 4 (4=60-79% damage)
[3]
  POST Application IPOHE herbicidal damage (five point scale): 5 (5=80-100% damage)
[4]
  POST Application ECHCG herbicidal damage (five point scale): 5 (5=80-100% damage)
[5]
  PRE Application ALOMY herbicidal damage (five point scale): 5 (5=80-100% damage)
[6]
  POST Application ALOMY herbicidal damage (five point scale): 5 (5=80-100% damage)
[7]
  PRE Application ECHCG herbicidal damage (five point scale): 5 (5=80-100% damage)
Setaria faberi (SETFA) [8]
  PRE Application SETFA herbicidal damage (five point scale): 4 (4=60-79% damage)
[9]
  POST Application AMARE herbicidal damage (five point scale): 5 (5=80-100% damage)
[10]
  PRE Application IPOHE herbicidal damage (five point scale): 2 (2=20-39% damage)
Solanum nigrum (SOLNI) [11]
  PRE Application SOLNI herbicidal damage (five point scale): 5 (5=80-100% damage)
[12]
  PRE Application AMARE herbicidal damage (five point scale): 5 (5=80-100% damage)

Source: patent US9693556B2, “Herbicidal pyridazinone derivatives” (SYNGENTA LIMITED, priority 2011, dated 2017)
